From article PMC9863607, “Combined Use of Antimicrobial Peptides with Antiseptics against Multidrug-Resistant Bacteria: Pros and Cons” (Pharmaceutics, 2023) come the findings set out here.

The test system of the assay is E. coli ML-35p. As to the kind of experiment: Fluorometric resazurin assay of bacterial metabolic activity. It is filed as cell-based, Escherichia coli. To be noted: ¼ MIC AMP + ¼ MIC poviargolum; became comparable to ½ MIC of the peptide. As to the method: The decline in metabolic activity of bacterial cells faced against test substances or their combinations was tracked using resazurin dye, also known as alamarBlue. […] Thus, resazurin-to-resorufin conversion was primarily associated with energy metabolism impairment.
The experimental procedure was basically the same as for permeability testing except for the substitution of the markers by 120 μM resazurin and the addition of 0.1% MHB to provide bacteria with a metabolic substrate. An additional control without both antimicrobials and bacterial cells was included to imitate the zero metabolic activity level. Though resazurin-to-resorufin transformation can be observed via either spectrometry or fluorimetry, the latter was preferred as a more sensitive method. Experiments were conducted in 96-well white opaque plates. Temperature and shaking parameters were left unchanged. Fluorescence intensity was measured at 590 nm with excitation at 560 nm. Data were collected every 3 min for 4–6 h using a Gemini EM plate spectrofluorimeter (Molecular Devices, San Jose, CA, USA).

Peptide text beside a SMILES is read from it.

Take `CC[C@H](C)[C@H](NC(=O)[C@H](CCCNC(=N)N)NC(=O)[C@@H](NC(=O)[C@@H]1CCCN1C(=O)[C@@H]1CCCN1C(=O)[C@H](CCCNC(=N)N)NC(=O)[C@H](CCCNC(=N)N)NC(=O)[C@H](Cc1ccccc1)NC(=O)[C@@H]1CCCN1C(=O)[C@H](CC(C)C)NC(=O)[C@H](CCCNC(=N)N)NC(=O)[C@H](Cc1ccccc1)NC(=O)[C@@H](N)CCCNC(=N)N)[C@@H](C)CC)C(=O)N[C@@H](Cc1c[nH]cn1)C(=O)N1CCC[C@H]1C(=O)N1CCC[C@H]1C(=O)N1CCC[C@H]1C(=O)N[C@@H](Cc1ccccc1)C(=O)N[C@@H](Cc1ccc(O)cc1)C(=O)N1CCC[C@H]1C(=O)N1CCC[C@H]1C(=O)N[C@@H](Cc1ccccc1)C(=O)N[C@@H](CCCNC(=N)N)C(=O)N[C@@H](CCCNC(=N)N)C(=O)N[C@@H](Cc1ccccc1)C(=O)N[C@@H](CC(C)C)C(=O)O` [ChBac3.4] (H-RFRLPFRRPPIRIHPPPFYPPFRRFL-OH; N-terminus assumed): the “Effect of poviargolum on development of the AMP's suppression of bacterial metabolic activity” value is “significantly accelerated”.
Consider `CC(C)C[C@H](NC(=O)[C@H](CCCNC(=N)N)NC(=O)CNC(=O)CNC(=O)[C@@H](N)CCCNC(=N)N)C(=O)N[C@H]1CSSC[C@@H](C(=O)N[C@H](C(=O)NCC(=O)N[C@@H](CCCNC(=N)N)C(N)=O)C(C)C)NC(=O)[C@H](C(C)C)NC(=O)[C@@H]2CSSC[C@H](NC(=O)[C@H](Cc3ccc(O)cc3)NC1=O)C(=O)N[C@@H](CCCNC(=N)N)C(=O)N[C@@H](CCCNC(=N)N)C(=O)N[C@@H](CCCNC(=N)N)C(=O)N[C@@H](Cc1ccccc1)C(=O)N2` [PG-1, protegrin 1], for which the “Effect of poviargolum on development of the AMP's suppression of bacterial metabolic activity” value is given as “significantly accelerated”.
